Experimental data published in patent US8742088B2, “Nucleic acids encoding antibodies or portions thereof comprising a heterologous T cell epitope and their use in modulating T cell responses” (priority 2007, dated 2014).

Tested on: predicted CTL epitopes from Tie-2
Assay: Ex-vivo IFNγ ELISPOT with predicted CTL epitopes from Tie-2
Type: in vivo, HHDII mice
Conditions: for Peptide-specific IFNγ response, highest mean value: peptide in IFA
Procedure: (C) and (D) HHDII mice were either untreated (c) or treated with 400 μg PC61mAb i.p., (d). 4 days later, all mice were immunized with the Tie2 C200HFc DNA construct. DNA immunizations were repeated at 7 day intervals for a total of 3 immunisations. 6 days after the final immunisation, splenocytes were harvested and restimulated in an ex-vivo IFNγ ELISPOT assay with 1 μg/ml of each of the predicted CTL epitopes from Tie-2. Bars indicate the mean of triplicate values for each individual mouse, normalized to background controls, with error bars representing the standard deviation from the mean.
(E) and (F), HHDII mice were either untreated (e) (n=3) or treated (f) (n=2) with 400 μg PC61 antibody i.p. After 4 days, all mice were immunised with 100 μg Z12 peptide and 100 μg Z48 peptide, mixed 1:1 in IFA (s.c.). Repeat peptide immunisations were administered 7 days after the first peptide immunisation. Splenocytes were harvested 14 days after the final immunisation and restimulated with 1 μg/ml Z12 peptide (black bars) or media alone (open bars) in an IFNγ ELIspot assay. Bars indicate the mean of triplicate values with error bars representing the standard deviation from the mean.
(G) HHDII mice were immunised with 100 μg Z12 peptide mixed 1:1 in IFA (s.c.). […] Splenocytes were harvested 7 days after the final immunisation and analysed for the presence of epitope specific responses to increasing peptide concentration in IFNγ elispot assay. Responses are measured from individual mice as spots/million splenocytes and avidity is assigned as the concentration which gives 50% maximal effector function.
(H) HHDII mice were immunised with ImmunoBody DNA construc DCIB71 via gene gun at days 0, 7 and 14. Splenocytes were harvested 7 days after the final immunisation and analysed for the presence of epitope specific responses to increasing peptide concentration in IFNγ elispot assay. Responses are measured from individual mice as spots/million splenocytes and avidity is assigned as the concentration which gives 50% maximal effector function. […]

ILINSLPLV [Z282, I L I N S L P L V]
Peptide-specific IFNγ response, highest mean value (CD25 depleted animals, mouse 2): 137 SFC/million cells | Peptide-specific IFNγ response, highest mean value (non-depleted animals, mouse 3): 215 SFC/million cells | z12 epitope specific responses (frequency and avidity) (three weekly immunisations, peptide titration): low frequency and avidity epitope specific responses
